{
  "source": "patent US20250049841A1",
  "about": "(priority 2021, published 2025)",
  "key": {"[1]": {"system": "SARS-CoV-2 USA_WA1/2020 strain"}, "[2]": {"system": "SARS-CoV-2 USA_WA1/2020 strain", "remark": "listed apart in the source"}, "[3]": {"system": "normal, human-derived tracheal/bronchial epithelial (TBE) cells", "test": "Toxicity of test compounds in the TBE tissue model (Example 1)", "details": "any of the test compound concentrations", "protocol": "(§1) Cell Culture: The EpiAirway™ Model consists of normal, human-derived tracheal/bronchial epithelial (TBE) cells which have been cultured to form a multi layered, highly differentiated model which closely resembles the epithelial tissue of the respiratory tract.\n(§2) The TBE cells were grown on 6 mm mesh disks in transwell inserts. […] The cells have unique properties in forming layers, the apical side of which is exposed only to air and that creates a mucin layer. Upon arrival, the cell transwell inserts were immediately transferred to individual wells of a 6-well plate according to manufacturer's instructions, and 1 mL of MatTek's proprietary culture medium (AIR-100-MM) was added to the basolateral side, whereas the apical side was exposed to a humidified 5% CO2 environment. The TBE cells were cultured at 37° C. for one day before the start of the experiment. After the 24 h equilibration period, the mucin layer, secreted from the apical side of the cells, was removed by washing with 400 μL pre-warmed 30 mM HEPES buffered saline solution 3X. Culture medium was replenished following the wash steps.\n(§3) Experimental design: Each 2× compound treatment (120 L) and virus (120 μL) was applied to the apical side, and 1× compound treatment only was applied to the basal side (1 mL), for a 2 h incubation. […]"}, "[4]": {"system": "SARS-CoV-2 (strain USA-WA1/2020)", "test": "microbe, parasite or virus in culture", "format": "cell-based, human", "details": "Severe acute respiratory syndrome coronavirus 2, 120 h"}, "[5]": {"system": "Respiratory syncytial virus (RSV-A2)", "test": "microbe, parasite or virus in culture", "details": "human respiratory syncytial virus, read-out: EC90 (VYR 90% effective concentration)"}, "[6]": {"system": "Respiratory syncytial virus (RSV-A2)", "details": "for SI = CC50/EC90: RSV-A2"}, "[7]": {"test": "in vitro", "details": "human", "protocol": "(§4) The amount of formazan is directly proportional to the number of living cells and the resulting colored solution is quantified by measuring absorbance at 450 nanometers using a multi-well spectrophotometer. Drug concentrations of 2 mg/ml and 1 mg/ml were tested in duplicate wells, and a drug concentration of 0.5 mg/ml was tested in singlet wells. On day 3 (H1N1) or day 6 (RSV), the apical side was washed one time with 400 μL pre-warmed PBS. The CCK-8 solution was added (200 L) to the apical side and incubated at 37° C. for 2 hours. The formazan (100 l) was placed into a 96-well plate and the 450 nm absorbance was recorded. Percent toxicity values were calculated as a percentage of the cell control test wells (no drug treatment) and reported as the 50% cell cytotoxic concentration (CC50) of compound (no virus). Tissues were also observed via microscopy to assess cytotoxicity."}, "[8]": {"system": "Influenza A/California/7/2009 (H1N1)", "details": "fresh drug on days 1 and 2; for Log10 CCID50 virus per 0.2 mL: H1N1, day 3"}, "[9]": {"system": "Influenza A/California/7/2009 (H1N1)", "test": "microbe, parasite or virus in culture", "details": "H1N1, in Homo sapiens, read-out: EC90 (VYR 90% effective concentration)"}, "[10]": {"system": "normal, human-derived tracheal/bronchial epithelial (TBE) cells", "protocol": "as §4"}, "[11]": {"system": "SARS-CoV-2 USA_WA1/2020 strain", "details": "hamster, in vivo"}, "[12]": {"system": "normal, human-derived tracheal/bronchial epithelial (TBE) cells", "remark": "listed apart in the source", "protocol": "as §1, §2, §3"}, "[13]": {"details": "500 mg/kg/d b.i.d. PO, individual animals"}, "[14]": {"details": "200 mg/kg/d b.i.d. PO, individual animals"}},
  "note": "“And” between values parts separate entries of the source, which are not always exact repeats. Identical values can stand only once. Like-named read-outs stand apart in the source and are kept apart here.",
  "data": [
    {"compound": "CC(C)C(=O)OC[C@H]1O[C@@H](n2ccc(NO)nc2=O)[C@H](O)[C@@H]1O", "note": "[EIDD-2801]", "values": [
      {"measurement": "reduction in lung virus titers, day 3 post-infection", "setting": "[1]; 500 mg/kg/d PO", "result": "one"},
      {"measurement": "effect on nasal tissue virus titers", "setting": "[1]; 500 mg/kg/d PO, FIG. 21, once daily comparison", "result": "did not significantly reduce"},
      {"measurement": "effect on lung weights", "setting": "[1]; 500 mg/kg/d PO, FIG. 22", "result": "did not significantly reduce"},
      {"measurement": "effect on nasal tissue virus titers, day 3 post-infection", "setting": "[1]; 500 mg/kg/d PO, FIG. 25, twice daily comparison, P<0.01", "result": "significantly reduced"},
      {"measurement": "effect on lung weights, Day 6", "setting": "[1]; 500 mg/kg/d PO, FIG. 26", "result": "significantly affected"},
      {"measurement": "effect on lung virus titers, day 3 post-infection", "setting": "[1]; 500 mg/kg/d PO, P<0.01 vs placebo", "result": "significantly reduced"},
      {"measurement": "Virus Titer, Lung tissue, Day 6", "setting": "[1]; [13]", "result": "<0.7 CCID50/mL (Log10)"},
      {"measurement": "Virus Titer, Nasal tissue, Day 6", "setting": "[1]; [13]", "result": "<0.7 CCID50/mL (Log10) (4×) and 1.7 CCID50/mL (Log10)"},
      {"measurement": "effect on lung weights", "setting": "[2]; 200 mg/kg/d PO", "result": "not significantly affected"},
      {"measurement": "effect on weight loss (percent initial body weight)", "setting": "[2]; 200 mg/kg/d PO, P<0.01 vs placebo", "result": "prevented weight loss"},
      {"measurement": "effect on oropharyngeal swab virus titers", "setting": "[2]; 200 mg/kg/d PO, any day post-infection", "result": "did not reduce"},
      {"measurement": "effect on lung virus titers", "setting": "[2]; 200 mg/kg/d PO, day 6 post-infection, P<0.0001 vs placebo", "result": "reduced lung virus titers"},
      {"measurement": "effect on nasal tissue virus titers", "setting": "[2]; 200 mg/kg/d PO, vs placebo", "result": "did not significantly reduce"},
      {"measurement": "Oropharyngeal swab Virus Titer, Day Post-Infection 5", "setting": "[2]; [14]", "result": "2.0 CCID50/mL (Log10) and <0.7 CCID50/mL (Log10) (3×) and 1.7 CCID50/mL (Log10)"},
      {"measurement": "Oropharyngeal swab Virus Titer, Day Post-Infection 6", "setting": "[2]; [14]", "result": "<0.7 CCID50/mL (Log10)"},
      {"measurement": "Virus Titer, Lung tissue, Day 6", "setting": "[2]; [14]", "result": "<0.7 CCID50/mL (Log10)"}
    ]},
    {"compound": "CO[Si](CCCN(C)[N+]([O-])=NO)(OC)OC", "note": "[MAP3-NONOate, N, N-methylaminopropyl diazeniumdiolate trimethoxysilane]", "values": [
      {"measurement": "toxicity", "setting": "[3]", "result": "No toxicity was observed"}
    ]},
    {"compound": "CCC(CC)COC(=O)[C@H](C)N[P@](=O)(OC[C@H]1O[C@@](C#N)(c2ccc3c(N)ncnn23)[C@H](O)[C@@H]1O)Oc1ccccc1", "note": "[Remdesivir]", "values": [
      {"measurement": "EC90", "setting": "[4]; read-out: EC90 (Titer 1)", "result": 0.0065, "unit": "µg/mL"},
      {"measurement": "EC90", "setting": "[4]; read-out: EC90 (Titer Avg.)", "result": 0.0065, "unit": "µg/mL"}
    ]},
    {"compound": "NC(=O)c1ncn([C@@H]2O[C@H](CO)[C@@H](O)[C@H]2O)n1", "note": "[Ribavirin]", "values": [
      {"measurement": "EC90", "setting": "[5]", "result": 5.12, "unit": "µg/mL"},
      {"measurement": "EC90 (VYR 90% effective concentration)", "setting": "[6]", "result": 4.6, "unit": "µg/mL"},
      {"measurement": "SI = CC50/EC90", "setting": "[6]; fresh drug on days 1, 2, and 5", "result": ">19.54"},
      {"measurement": "SI = CC50/EC90", "setting": "[6]; fresh drug on days 1-5", "result": ">21.7"},
      {"measurement": "CC50", "setting": "[7]", "result": "> 100", "unit": "µg/mL"},
      {"measurement": "CC50 at 6 days", "setting": "[7]", "result": "> 100", "unit": "µg/mL"},
      {"measurement": "Log10 CCID50 virus per 0.2 mL", "setting": "[8]; concentration 1 μg/ml", "result": "6.50 Log10 CCID50 virus per 0.2 mL"},
      {"measurement": "Log10 CCID50 virus per 0.2 mL", "setting": "[8]; concentration 10 μg/ml", "result": "4.00 Log10 CCID50 virus per 0.2 mL"},
      {"measurement": "Log10 CCID50 virus per 0.2 mL", "setting": "[8]; concentration 100 μg/ml", "result": "2.67 Log10 CCID50 virus per 0.2 mL"},
      {"measurement": "SI = CC50/EC90", "setting": "[8]; H1N1", "result": ">52.9"},
      {"measurement": "EC90", "setting": "[9]", "result": 1.89, "unit": "µg/mL"}
    ]},
    {"compound": "berdazimer sodium", "values": [
      {"measurement": "deaths", "setting": "[1]; hamster, in vivo", "result": "two of the ten animals"},
      {"measurement": "cytotoxicity, tissues observed under the microscope", "setting": "[10]", "result": "no overt cytotoxicity"},
      {"measurement": "premature deaths", "setting": "[11]", "result": "no premature deaths were observed"},
      {"measurement": "adverse events", "setting": "[2]; hamster, in vivo, 2 mg/kg/day", "result": "No adverse events were observed"},
      {"measurement": "toxicity", "setting": "[12]", "result": "No toxicity was observed"}
    ]}
  ]
}
